Measured values as given in patent publication US20090215627A1, “Crystal Structure of Biotin Carboxylase (Bc) Domain of Acetyl-Coenzyme a Carboxylase and Methods of Use Thereof” (priority 2004, published 2009).

Legend:
[1] = molecular target: T1, Wild-type yeast BC domain (Saccharomyces cerevisiae, UniProt Q00955); assay: radioactive binding assay, wild-type yeast BC domain; conditions: read-out: Kd (nM) (radiactive assay)
T1 construct: Residues 2-581 of yeast ACC were sub-cloned into the pET28a vector; made in house; host or cells: E. coli BL21(DE3) Rosetta
Protocol: (§1) The mutants were designed based on the structural information and made with the QuikChange kit (Stratagene). The mutants were sequenced, expressed in E. coli, and purified following the same protocol as that for the wild-type BC domain. The affinity of soraphen for the mutants were assessed using a radioactive binding assay (Weatherly et al., supra (2004)).

[2] = molecular target: T2, I69E mutant yeast BC domain (Saccharomyces cerevisiae, UniProt Q00955, I69E); assay: radioactive binding assay, I69E mutant; conditions: up to 60 nM soraphen A, 10 nM protein, read-out: Kd (nM) (radiactive assay)
T2 construct: Residues 2-581 of yeast ACC were sub-cloned into the pET28a vector; made in house; host or cells: E. coli
Protocol: as §1

[3] = molecular target: T3, K73R mutant yeast BC domain (Saccharomyces cerevisiae, UniProt Q00955, K73R); assay: radioactive binding assay, K73R mutant; conditions: up to 60 nM soraphen A, 10 nM protein, read-out: Kd (nM) (radiactive assay)
T3 construct: Residues 2-581 of yeast ACC were sub-cloned into the pET28a vector; made in house; host or cells: E. coli
Protocol: as §1

[4] = molecular target: T4, S77Y mutant yeast BC domain (Saccharomyces cerevisiae, UniProt Q00955, S77Y); assay: radioactive binding assay, S77Y mutant; conditions: up to 60 nM soraphen A, 10 nM protein, read-out: Kd (nM) (radiactive assay)
T4 construct: Residues 2-581 of yeast ACC were sub-cloned into the pET28a vector; made in house; host or cells: E. coli
Protocol: as §1

[5] = molecular target: T5, E477R mutant yeast BC domain (Saccharomyces cerevisiae, UniProt Q00955, E477R); assay: radioactive binding assay, E477R mutant; conditions: read-out: Kd (nM) (radiactive assay)
T5 construct: Residues 2-581 of yeast ACC were sub-cloned into the pET28a vector; made in house; host or cells: E. coli
Protocol: as §1

[6] = molecular target: T6, N485G mutant yeast BC domain (Saccharomyces cerevisiae, UniProt Q00955, N485G); assay: radioactive binding assay, N485G mutant; conditions: read-out: Kd (nM) (radiactive assay)
T6 construct: Residues 2-581 of yeast ACC were sub-cloned into the pET28a vector; made in house; host or cells: E. coli
Protocol: as §1

[7] = molecular target: T7, W487R mutant yeast BC domain (Saccharomyces cerevisiae, UniProt Q00955, W487R); assay: radioactive binding assay, W487R mutant; conditions: up to 60 nM soraphen A, 10 nM protein, read-out: Kd (nM) (radiactive assay)
T7 construct: Residues 2-581 of yeast ACC were sub-cloned into the pET28a vector; made in house; host or cells: E. coli
Protocol: as §1

[8] = molecular target: T8, F510I mutant yeast BC domain (Saccharomyces cerevisiae, UniProt Q00955, F510I); assay: radioactive binding assay, F510I mutant; conditions: read-out: Kd (nM) (radiactive assay)
T8 construct: Residues 2-581 of yeast ACC were sub-cloned into the pET28a vector; made in house; host or cells: E. coli
Protocol: as §1

[9] = molecular target: T1, Wild-type yeast BC domain; assay: fluorescence-based binding assay (Trp emission), wild-type; conditions: 50 nM enzyme
Protocol: (§2) We have developed a fluorescence-based binding assay using our structural information, which monitored the increase in Trp emission upon soraphen binding. The binding buffer initially contained 100 mM Tris (pH 8.0), 100 mM NaCl, and 50 nM wild-type or mutant enzyme, and increasing concentrations of soraphen A was titrated into the solution. The observed binding curve is fitted using conventional methods or the tight-binding model where appropriate.
(§3) We next developed a fluorescence-based binding assay using the structural information. […] There is also a slight blue shift in the fluorescence emission maximum upon soraphen binding. The observed increase in Trp fluorescence as a function of soraphen concentration can be easily fit to a one-site binding model (FIG. 5), confirming that there is a single binding site for soraphen in the BC domain. The binding affinity obtained from this fluorescence assay is generally in good agreement with that based on the radioactive binding assay (Table 3) (Weatherly et al., supra (2004)). Compared to the radioactive assay, the fluorescence assay has the advantage that it can measure affinity between 1 nM to 10 μM, whereas the radioactive assay is limited to Kd values […] ˜50 nM.

[10] = molecular target: T2, I69E mutant yeast BC domain; assay: fluorescence-based binding assay, I69E mutant; conditions: 50 nM enzyme
Protocol: as §2, §3

[11] = molecular target: T3, K73R mutant yeast BC domain; assay: fluorescence-based binding assay, K73R mutant
Protocol: as §2, §3

[12] = molecular target: T5, E477R mutant yeast BC domain; assay: fluorescence-based binding assay, E477R mutant; conditions: 50 nM enzyme
Protocol: as §2, §3

[13] = molecular target: T6, N485G mutant yeast BC domain; assay: fluorescence-based binding assay, N485G mutant; conditions: 50 nM enzyme
Protocol: as §2, §3

[14] = molecular target: T8, F510I mutant yeast BC domain; assay: fluorescence-based binding assay, F510I mutant
Protocol: as §2, §3

[15] = molecular target: T7, W487R mutant yeast BC domain; assay: fluorescence-based binding assay, W487R mutant; conditions: W487R mutant (data not shown)
Protocol: as §2, §3

BC domain of human ACC1 = molecular target: T9, BC domain of human ACC1 (Homo sapiens, UniProt Q13085); assay: binding to BC domain of human ACC1 (unpublished results)
T9 construct: the BC domains of human ACC1 and ACC2

BC domain of human ACC2 = molecular target: T10, BC domain of human ACC2 (Homo sapiens, UniProt O00763); assay: binding to BC domain of human ACC2 (unpublished results)
T10 construct: the BC domains of human ACC1 and ACC2

[16] = molecular target: T11, active site of yeast BC domain (Saccharomyces cerevisiae, UniProt Q00955); assay: binding of fluorescent ATP analog (Mant-ATP) to active site; conditions: preliminary experiments, unpublished data
T11 construct: Residues 2-581 of yeast ACC were sub-cloned into the pET28a vector; made in house; host or cells: E. coli BL21(DE3) Rosetta

[17] = molecular target: T1, Wild-type yeast BC domain; assay: native gel electrophoresis assay, wild-type BC domain; conditions: 12% native gel
Protocol: (§4) FIG. 7. […] Schematic drawing of the dimer of E. coli BC subunit in complex with ATP (Thoden et al., supra 2000). The dimer axis is indicated with the magenta oval. […] (B). Native gel (12%) showing the electrophoretic mobility of wild-type and K73R mutant of yeast BC domain in the absence or presence of soraphen. […] Each lane was loaded with 20 μg of protein in 10 μl.
(§5) To obtain experimental evidence for the effects of soraphen A on the oligomerization state of BC domains, we examined the mobility of the yeast BC domain in a native gel electrophoresis assay.

[18] = molecular target: T12, K73R mutant of the BC domain (Saccharomyces cerevisiae, UniProt Q00955, K73R); assay: native gel electrophoresis assay, K73R mutant; conditions: K73R mutant of yeast BC domain, 12% native gel
T12 construct: Residues 2-581 of yeast ACC were sub-cloned into the pET28a vector; made in house; host or cells: E. coli
Protocol: as §4, §5

[19] = molecular target: BC domain of eukaryotic ACCs; conditions: literature; cited from earlier work
bacterial BC subunits = conditions: literature; cited from earlier work
[20] = molecular target: yeast ACC Ser77 to Tyr mutant (Saccharomyces cerevisiae, UniProt Q00955, S77Y); conditions: yeast ACC with Ser77 mutated to Tyr, literature; cited from earlier work
ACC = conditions: kinetic data, literature; cited from earlier work
[21] = molecular target: K73R mutation of yeast ACC (Saccharomyces cerevisiae, UniProt Q00955, K73R); conditions: cited from earlier work
[22] = literature SAR, in words; cited from earlier work

T8 sequence (Q00955 2-581 F510I): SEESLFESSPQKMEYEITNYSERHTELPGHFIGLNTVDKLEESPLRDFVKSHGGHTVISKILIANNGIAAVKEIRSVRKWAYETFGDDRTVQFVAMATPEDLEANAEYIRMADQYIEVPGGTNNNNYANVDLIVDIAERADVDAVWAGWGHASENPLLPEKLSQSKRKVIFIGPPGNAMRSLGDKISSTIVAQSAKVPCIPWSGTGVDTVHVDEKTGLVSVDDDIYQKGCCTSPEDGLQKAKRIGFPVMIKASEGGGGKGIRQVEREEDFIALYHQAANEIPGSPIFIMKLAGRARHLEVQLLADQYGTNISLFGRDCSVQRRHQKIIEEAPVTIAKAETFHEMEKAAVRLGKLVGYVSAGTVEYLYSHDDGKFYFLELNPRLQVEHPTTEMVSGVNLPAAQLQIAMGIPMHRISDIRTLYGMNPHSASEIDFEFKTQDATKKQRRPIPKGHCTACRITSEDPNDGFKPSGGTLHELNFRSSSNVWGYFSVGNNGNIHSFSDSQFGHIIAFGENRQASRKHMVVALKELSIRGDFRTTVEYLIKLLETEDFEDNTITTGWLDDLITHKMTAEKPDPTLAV
T3 sequence (Q00955 2-581 K73R): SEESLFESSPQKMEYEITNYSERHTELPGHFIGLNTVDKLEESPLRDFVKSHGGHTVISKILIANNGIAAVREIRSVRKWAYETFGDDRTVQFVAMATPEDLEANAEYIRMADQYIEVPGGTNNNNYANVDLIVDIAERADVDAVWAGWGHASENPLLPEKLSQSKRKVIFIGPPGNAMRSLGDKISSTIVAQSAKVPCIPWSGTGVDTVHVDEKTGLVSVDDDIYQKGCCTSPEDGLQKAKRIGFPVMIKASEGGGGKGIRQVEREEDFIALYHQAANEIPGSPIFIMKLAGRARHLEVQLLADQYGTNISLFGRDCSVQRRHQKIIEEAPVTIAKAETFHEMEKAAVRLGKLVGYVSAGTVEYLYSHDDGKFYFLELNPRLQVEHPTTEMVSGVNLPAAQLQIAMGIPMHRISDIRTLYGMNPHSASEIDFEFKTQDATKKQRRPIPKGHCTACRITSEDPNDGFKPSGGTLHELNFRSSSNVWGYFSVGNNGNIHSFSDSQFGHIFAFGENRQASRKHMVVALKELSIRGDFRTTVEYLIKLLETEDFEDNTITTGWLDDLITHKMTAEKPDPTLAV
T1 sequence (Q00955 2-581): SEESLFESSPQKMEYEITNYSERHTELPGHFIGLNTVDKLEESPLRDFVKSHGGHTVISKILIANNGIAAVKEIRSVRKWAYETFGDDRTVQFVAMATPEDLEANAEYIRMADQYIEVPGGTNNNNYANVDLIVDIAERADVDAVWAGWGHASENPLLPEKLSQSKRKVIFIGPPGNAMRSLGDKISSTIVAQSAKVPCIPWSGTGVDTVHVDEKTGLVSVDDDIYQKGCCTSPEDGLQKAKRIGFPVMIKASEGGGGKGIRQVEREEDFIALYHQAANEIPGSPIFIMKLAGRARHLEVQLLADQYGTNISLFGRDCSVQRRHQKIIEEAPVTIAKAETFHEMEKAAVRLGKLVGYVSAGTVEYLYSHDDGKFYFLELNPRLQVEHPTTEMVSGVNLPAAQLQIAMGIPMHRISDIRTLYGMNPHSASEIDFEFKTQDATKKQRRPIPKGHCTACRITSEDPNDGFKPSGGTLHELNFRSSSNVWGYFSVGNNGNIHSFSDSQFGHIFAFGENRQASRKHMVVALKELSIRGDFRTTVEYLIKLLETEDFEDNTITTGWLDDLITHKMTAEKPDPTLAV
T5 sequence (Q00955 2-581 E477R): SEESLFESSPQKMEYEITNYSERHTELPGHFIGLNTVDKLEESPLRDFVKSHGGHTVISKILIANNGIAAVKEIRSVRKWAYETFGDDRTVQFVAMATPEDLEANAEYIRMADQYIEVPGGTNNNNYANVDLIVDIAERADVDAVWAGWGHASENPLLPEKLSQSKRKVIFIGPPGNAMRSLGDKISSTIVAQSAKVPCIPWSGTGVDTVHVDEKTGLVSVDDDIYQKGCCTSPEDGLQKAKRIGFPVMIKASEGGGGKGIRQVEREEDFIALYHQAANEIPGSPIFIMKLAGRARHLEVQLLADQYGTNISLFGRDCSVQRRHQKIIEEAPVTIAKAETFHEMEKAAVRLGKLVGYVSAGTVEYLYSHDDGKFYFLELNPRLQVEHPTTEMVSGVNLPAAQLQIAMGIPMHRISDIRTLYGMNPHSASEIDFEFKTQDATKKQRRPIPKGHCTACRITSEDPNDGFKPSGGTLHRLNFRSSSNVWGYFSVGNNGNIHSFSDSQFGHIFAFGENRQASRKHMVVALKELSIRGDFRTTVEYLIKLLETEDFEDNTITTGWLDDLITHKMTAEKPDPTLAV
T6 sequence (Q00955 2-581 N485G): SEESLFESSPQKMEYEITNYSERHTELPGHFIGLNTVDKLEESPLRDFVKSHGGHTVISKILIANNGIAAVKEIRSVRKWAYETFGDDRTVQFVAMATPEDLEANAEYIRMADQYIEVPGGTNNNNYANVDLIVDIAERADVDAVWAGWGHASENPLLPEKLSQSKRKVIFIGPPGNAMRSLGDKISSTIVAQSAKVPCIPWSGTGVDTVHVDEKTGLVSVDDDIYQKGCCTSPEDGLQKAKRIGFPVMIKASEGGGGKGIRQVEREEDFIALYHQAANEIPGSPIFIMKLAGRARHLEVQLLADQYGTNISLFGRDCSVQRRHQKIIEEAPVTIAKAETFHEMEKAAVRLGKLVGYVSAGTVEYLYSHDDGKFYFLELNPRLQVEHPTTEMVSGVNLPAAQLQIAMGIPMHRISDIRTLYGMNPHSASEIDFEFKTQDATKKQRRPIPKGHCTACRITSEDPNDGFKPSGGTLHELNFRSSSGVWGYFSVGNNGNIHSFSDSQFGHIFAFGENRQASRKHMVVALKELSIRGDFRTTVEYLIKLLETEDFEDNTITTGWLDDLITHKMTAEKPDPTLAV
T7 sequence (Q00955 2-581 W487R): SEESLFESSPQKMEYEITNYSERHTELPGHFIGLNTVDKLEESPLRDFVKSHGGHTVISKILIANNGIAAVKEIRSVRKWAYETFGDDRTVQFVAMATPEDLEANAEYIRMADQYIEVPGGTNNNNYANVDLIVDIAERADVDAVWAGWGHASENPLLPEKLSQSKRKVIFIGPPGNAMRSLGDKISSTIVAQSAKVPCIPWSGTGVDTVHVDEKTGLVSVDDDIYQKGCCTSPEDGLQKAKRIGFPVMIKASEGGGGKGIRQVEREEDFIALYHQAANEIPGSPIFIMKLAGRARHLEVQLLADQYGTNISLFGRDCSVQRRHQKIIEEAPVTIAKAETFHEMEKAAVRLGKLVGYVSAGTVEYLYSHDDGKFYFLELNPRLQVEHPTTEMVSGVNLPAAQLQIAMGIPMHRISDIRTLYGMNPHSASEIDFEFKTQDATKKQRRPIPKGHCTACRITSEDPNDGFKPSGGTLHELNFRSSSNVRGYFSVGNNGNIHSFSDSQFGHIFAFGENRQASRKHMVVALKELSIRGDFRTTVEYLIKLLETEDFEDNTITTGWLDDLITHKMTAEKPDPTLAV
T2 sequence (Q00955 2-581 I69E): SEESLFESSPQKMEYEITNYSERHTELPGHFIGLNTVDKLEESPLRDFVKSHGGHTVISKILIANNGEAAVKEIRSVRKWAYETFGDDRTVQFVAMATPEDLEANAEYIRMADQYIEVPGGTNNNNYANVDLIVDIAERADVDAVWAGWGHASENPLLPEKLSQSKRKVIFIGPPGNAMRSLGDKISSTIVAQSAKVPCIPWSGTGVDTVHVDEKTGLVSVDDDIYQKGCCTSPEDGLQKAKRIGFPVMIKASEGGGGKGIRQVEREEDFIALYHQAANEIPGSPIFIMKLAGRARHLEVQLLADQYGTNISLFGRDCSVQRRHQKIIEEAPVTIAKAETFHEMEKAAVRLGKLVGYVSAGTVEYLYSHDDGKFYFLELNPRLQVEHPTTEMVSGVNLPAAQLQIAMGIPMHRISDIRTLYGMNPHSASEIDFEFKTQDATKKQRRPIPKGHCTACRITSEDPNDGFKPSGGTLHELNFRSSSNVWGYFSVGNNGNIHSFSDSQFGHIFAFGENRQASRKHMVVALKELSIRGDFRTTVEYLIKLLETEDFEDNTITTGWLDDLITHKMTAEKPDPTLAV
T12 sequence (Q00955 2-581 K73R): as the sequence (Q00955 2-581 K73R) above

## CO[C@H]1CCCC[C@@H](c2ccccc2)OC(=O)[C@@H](C)[C@@]2(O)O[C@H]([C@@H](C)[C@H](O)[C@H]2OC)[C@@H](C)/C=C/[C@H]1OC [soraphen A]
[1]
  Kd: 2 ± 0.9 nM
[2]
  Kd: > 60 nM
[3]
  Kd: > 60 nM
[4]
  Kd: > 60 nM
[5]
  Kd: 24.7 ± 10.4 nM
[6]
  Kd: 2.7 ± 0.4 nM
[7]
  Kd: > 60 nM
[8]
  Kd: 5.7 ± 1 nM
[9]
  Kd: 3.9 ± 0.7 nM
[10]
  Kd: 104 ± 18 nM
[11]; K73R mutant
  Kd (in words): micromolar range
[11]; K73R mutant versus wild-type
  loss in affinity for soraphen: 500 fold
[11]; K73R yeast BC domain, 50 nM enzyme
  Kd: 2010 ± 174 nM
[12]
  Kd: 274 ± 30 nM
[13]
  Kd: 55 ± 4 nM
[14]; F510I mutation versus wild-type
  impact on the affinity for soraphen: minor impact
[14]; F510I yeast BC domain, 50 nM enzyme
  Kd: 10.6 ± 4.8 nM
[15]
  fluorescence change in the presence of soraphen: little fluorescence change
BC domain of human ACC1
  Kd: ~1 nM
BC domain of human ACC2
  Kd: ~1 nM
[16]
  interference with the binding of Mant-ATP to the active site: does not interfere
[17]
  electrophoretic mobility in native gel in the presence of soraphen A: a sharp band is observed, with the fastest migrating speed
[18]
  electrophoretic mobility in native gel in the presence of soraphen A: not affected
[19]
  Kd: ~1 nM
Bacterial BC subunits
  effect on bacterial BC subunits: no effect
[20]
  sensitivity of the enzyme to soraphen A: insensitive
ACC
  mode of inhibition with respect to the substrates of ACC: noncompetitive
[21]
  resistance to soraphen A: resistance

## soraphen F
[22]
  activity relative to soraphen A: moderate loss of activity
